Experimental data reported in patent publication US20210221843A1, “EPHA2 AGONISTS AND USES THEREOF” (THE REGENTS OF THE UNIVERSITY OF CALIFORNIA, priority 2018, published 2021).
Entries after “also recorded” stand apart in the source; their conditions may differ. Starred links: 1 amine or outer side, 2 acyl side, 3 side chain; linkers in the order of their positions; H or OH if unused. Non-standard residues stand in square brackets, D forms with d. Residues, ends and D or L forms follow the SMILES beside them. *: point of attachment. Dap(4-FSB) = (S)-2-amino-3-(4-(fluorosulfonyl)benzamido)propanoic acid, O=C(NC[C@H](N[*:1])C(=O)[*:2])c1ccc(S(=O)(=O)F)cc1; 7‑MethoxyBenzofuranoic = N-terminus modified by (7-methoxybenzofuran-2-yl)-methanone, COc1cccc2cc(C(=O)*)oc12; Phenoxyacetyl(3-Cl,4-F) = O=C(COc1ccc(F)c(Cl)c1)*; Dap = NC[C@H](N)C(=O)O

How the values were obtained:
EphA2-LBD = EphA2-LBD (Homo sapiens, UniProt P29317); test: DELFIA displacement assay (displacement of biotinylated 123B9 from EphA2-LBD)
EphA2-LBD, sequence (P29317 28-206 limits assumed): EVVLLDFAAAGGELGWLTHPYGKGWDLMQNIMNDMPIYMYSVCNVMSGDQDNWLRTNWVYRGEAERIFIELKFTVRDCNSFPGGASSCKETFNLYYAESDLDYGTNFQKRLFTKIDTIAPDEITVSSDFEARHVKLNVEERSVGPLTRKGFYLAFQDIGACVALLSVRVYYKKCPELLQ

EphA2 [1] = biological target: T1, EphA2 (Homo sapiens, UniProt P29317); test: EphA2 receptor phosphorylation assay in HEK293 cells (immunoprecipitation, anti-phosphotyrosine blot); format: cell-based; design: endogenous in cells; PANC-1; conditions: various doses
T1 sequence (P29317 24-976): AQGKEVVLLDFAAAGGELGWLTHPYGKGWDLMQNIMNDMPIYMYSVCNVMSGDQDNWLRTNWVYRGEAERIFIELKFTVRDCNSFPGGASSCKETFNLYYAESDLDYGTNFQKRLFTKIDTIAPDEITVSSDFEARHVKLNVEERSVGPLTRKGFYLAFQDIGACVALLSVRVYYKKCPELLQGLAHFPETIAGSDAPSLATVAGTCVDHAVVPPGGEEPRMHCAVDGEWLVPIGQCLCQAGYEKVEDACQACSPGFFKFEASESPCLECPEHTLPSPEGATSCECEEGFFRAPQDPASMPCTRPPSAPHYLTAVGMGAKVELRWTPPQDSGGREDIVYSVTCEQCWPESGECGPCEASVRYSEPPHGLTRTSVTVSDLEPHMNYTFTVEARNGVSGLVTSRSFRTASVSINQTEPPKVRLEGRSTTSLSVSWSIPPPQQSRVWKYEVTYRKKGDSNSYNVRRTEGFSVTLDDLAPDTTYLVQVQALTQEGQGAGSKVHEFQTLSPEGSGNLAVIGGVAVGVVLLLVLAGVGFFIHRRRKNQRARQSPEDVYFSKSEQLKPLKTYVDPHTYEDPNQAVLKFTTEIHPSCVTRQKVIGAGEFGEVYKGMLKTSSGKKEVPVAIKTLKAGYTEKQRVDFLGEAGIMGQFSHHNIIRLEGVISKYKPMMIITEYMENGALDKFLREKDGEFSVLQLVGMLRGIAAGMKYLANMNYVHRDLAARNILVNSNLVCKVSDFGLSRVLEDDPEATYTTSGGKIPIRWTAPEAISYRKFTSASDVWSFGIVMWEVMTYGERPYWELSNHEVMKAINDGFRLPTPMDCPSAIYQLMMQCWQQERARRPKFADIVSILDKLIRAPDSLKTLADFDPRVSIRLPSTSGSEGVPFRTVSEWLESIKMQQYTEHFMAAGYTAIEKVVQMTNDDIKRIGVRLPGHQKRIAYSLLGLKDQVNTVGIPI

EphA2 [2] = biological target: T1, EphA2; test: Western blot of total EphA2 and pEphA2 S897 in BxPC3 cells; format: cell-based; design: endogenous in cells; host or cells: BxPC3; PANC-1; conditions: 3 hours treatment
BxPC3 cells [3] = test: Time-lapse scratch wound cell-migration assay; format: cell-based; conditions: 2.5 μM
Protocol: Cell-migration assay: Cells were cultured in 96-well ImageLock plates (Sartorius). Next day, wells were scratched using the WoundMaker (Sartorius). Subsequently, cells were washed twice with PBS and treated with the indicated compounds in RPMI-1640 complete media. Subsequently, cells were imaged every 6 h using IncuCyte S3 (Sartorius) and relative wound areas were analyzed using the algorithm of the imager cell migration software module.

BxPC3 cells [4] = test: Time-lapse scratch wound cell invasion assay (Matrigel); format: cell-based; conditions: scratch wound through Matrigel, 2.5 μM
Protocol: Cell invasion assay: Matrigel (Corning) was diluted in serum-free RPMI-1640 media (1:100), 50 µL of the mixture was added to ImageLock plate and incubated at 37° C. for 2 h. Next, excess media were aspirated and cells in complete media were plated and left overnight in humidified cell culture incubator. The following day, cell culture plate was aspirated, scratched with the WoundMaker, and washed twice with PBS. Subsequently, the plate was coated with a mixture of Matrigel and cold serum-free RPMI-1640 (1:1) and left in the incubator to solidify for 30 min. Finally, 100 µL of 1.5× compound-media mixture was added to the plate at various concentrations. The healing of the scratches was imaged and calculated similar to the migration assay.

EphA2 [5] = biological target: T1, EphA2; test: Western blot of total EphA2 and pEphA2 S897 in PANC-1 cells; format: cell-based; design: endogenous in cells; host or cells: PANC-1
EphA2 [6] = biological target: T1, EphA2; test: Immunofluorescence of EphA2 cellular localization in BxPC3 cells; format: cell-based; design: endogenous in cells; host or cells: BxPC3; PANC-1; conditions: 30 min treatment, 1 μM 135H12
Protocol: FIG. 4A-D. Dimeric EphA2 agonists degrade EphA2 receptors in cancer cells. […] BxPC3 cell line was treated with the indicated doses for 3 hours, then cells were lysed and Western blot studies were performed. […] BxPC3 or PANC-1 cells were treated and lysed similar to the previous Western blot. […] EphrinA1-Fc is a clustered natural ligand and used as a positive control. […] Moreover, the receptor band disappeared after 1 hour of treatment. […] Cells were immunostained with EphA2 antibody (light) and nuclei were counterstained with DAPI (dark). […] Images were acquired using confocal Inverted Zeiss 880.
In chamber slides, cells were plated and allowed to adhere overnight in humidified cell culture incubators. The following day, cells were treated with the indicated ligands for 30 min. Subsequently, cells were washed with PBS and fixed with 4% Formaldehyde (Polysciences, Inc.), then blocked and permeabilized with 5% FBS and 0.3% Triton™ X-100 for 1 h. Next, wells were washed and stained with anti-EphA2 antibody, followed by three washes and further incubation with Alexafluor goat anti-mouse 488 secondary antibody (ThermoFisher). Cells were counterstained with DAPI and mounted with Prolong Diamond Antifade (ThermoFisher). Images were acquired with confocal microscope Zeiss 880 Airyscan and processed using Adobe Photoshop CC.

EphA2 [7] = biological target: T1, EphA2; test: Covalent gel shift with EphA2; format: biochemical; conditions: compounds incubated 10:1 for 2 hours at room temperature
Protocol: Covalent adduct formation of EphA2 with 147A5 and 147A6, respectively, were confirmed by covalent gel shift. Compounds were incubated 10:1 for 2 hours at room temperature.

CC(C)[C@H](NC(=O)[C@H](CC(=O)O)NC(=O)[C@H](CC(=O)O)NC(=O)[C@@H]1CCCN1C(=O)[C@H](Cc1ccc(O)cc1)NC(=O)[C@H](C)NC(=O)[C@H](CN)NC(=O)COc1ccc(F)c(Cl)c1)C(=O)N1CCC[C@H]1C(=O)N[C@@H](Cc1ccccc1)C(=O)N[C@@H](CCCNC(=N)N)C(=O)N1CCC[C@H]1C(N)=O [135F11] ({Phenoxyacetyl(3-Cl,4-F)}-[Dap]AYPDDVPFRP-NH2)
IC50 (EphA2-LBD): > 200 µM

CC(C)[C@H](NC(=O)[C@H](CO)NC(=O)[C@H](CC(=O)O)NC(=O)[C@@H]1CCCN1C(=O)[C@H](Cc1ccc(O)cc1)NC(=O)[C@H](C)NC(=O)[C@H](CO)NC(=O)COc1ccc(F)c(Cl)c1)C(=O)N1C[C@H](O)C[C@H]1C(=O)N[C@@H](Cc1ccc(Cl)cc1)C(=O)N[C@@H](CCCNC(=N)N)C(=O)N1CCC[C@H]1C(N)=O [135G3, (4F,3ClPhOCH2CO)SAYPDSV(Hyp)(4ClPhe)RP-CONH2]
induction of EphA2 receptor phosphorylation (EphA2 [1]): remarkably increased cellular activity in inducing tyrosine receptor phosphorylation compared to YSA

CC(C)[C@H](NC(=O)[C@H](CO)NC(=O)[C@H](CC(=O)O)NC(=O)[C@@H]1CCCN1C(=O)[C@H](Cc1ccc(O)cc1)NC(=O)[C@H](C)NC(=O)[C@H](CO)NC(=O)COc1ccc(F)c(Cl)c1)C(=O)N1C[C@H](O)C[C@H]1C(=O)N[C@@H](Cc1ccc(Cl)cc1)C(=O)N[C@@H](CCCNC(=N)N)C(=O)N1CCC[C@H]1C(=O)NCC(=O)NCCCC[C@H](NC(=O)CNC(=O)[C@@H]1CCCN1C(=O)[C@H](CCCNC(=N)N)NC(=O)[C@H](Cc1ccc(Cl)cc1)NC(=O)[C@@H]1C[C@@H](O)CN1C(=O)[C@@H](NC(=O)[C@H](CO)NC(=O)[C@H](CC(=O)O)NC(=O)[C@@H]1CCCN1C(=O)[C@H](Cc1ccc(O)cc1)NC(=O)[C@H](C)NC(=O)[C@H](CO)NC(=O)COc1ccc(F)c(Cl)c1)C(C)C)C(N)=O [135G4, [(4F,3ClPhOCH2CO)SAYPDSV(HYP)(4ClPhe)RPG]2-K-CONH2]
degradation of total EphA2 and dephosphorylation of pEphA2 S897 (EphA2 [2]): degraded total EphA2 receptor and phosphorylated pEphA2 S897 at nanomolar concentrations; also recorded: remarkably active in inducing receptor degradation and dephosphorylation of Ser897-EphA2 at sub-micromolar concentrations

COc1ccc(C[C@H](NC(=O)[C@H](C)NC(=O)[C@H](CC(C)C)NC(=O)c2oc3c(OC)c(OC)ccc3c2C)C(=O)N2CCC[C@H]2C(=O)N[C@@H](CC(=O)O)C(=O)N[C@@H](C)C(=O)N[C@H](C(=O)N2C[C@H](O)C[C@H]2C(=O)N[C@@H](Cc2ccc(Cl)cc2)C(=O)N[C@@H](CCCNC(=N)N)C(=O)N2CCC[C@H]2C(N)=O)C(C)C)cc1 [135H11, XLA(4MeTyr)PDAV(Hyp)(4ClPhe)RP-CONH2]
inhibition of cell migration (BxPC3 cells [3]): inhibit cell migration
inhibition of cell invasion (BxPC3 cells [4]): inhibited cell invasion; also recorded: equally effective in suppressing cell invasion at low micromolar concentration
degradation of total EphA2 and dephosphorylation of pEphA2 S897 (EphA2 [5]): more effective than the monomer 123B9; also recorded: orders of magnitude more effective than 123B9 in causing EphA2 degradation and suppressing oncogenic pSer897-EphA2
degradation of total EphA2 and dephosphorylation of pEphA2 S897 (EphA2 [2]): more effective than the monomer 123B9; also recorded: orders of magnitude more effective than 123B9 in causing EphA2 degradation and suppressing oncogenic pSer897-EphA2
EphA2 cellular localization (EphA2 [6]): located at the cell membrane; also recorded: fluorescence localized at the cell membrane

(7-MethoxyBenzofuranoic)LAYPDAVP-Dap(3-FSB)-RP-CONH2 ({7‑MethoxyBenzofuranoic}-LAYPDAVP[Dap(3-FSB)]RP-NH2) [147A6]
covalent adduct formation with EphA2 (EphA2 [7]): confirmed

(7-MethoxyBenzofuranoic)LAYPDAVP-Dap(4-FSB)-RP-CONH2 ({7‑MethoxyBenzofuranoic}-LAYPDAVP[Dap(4-FSB)]RP-NH2; SMILES COc1cccc2cc(C(=O)N[C@@H](CC(C)C)C(=O)N[C@@H](C)C(=O)N[C@@H](Cc3ccc(O)cc3)C(=O)N3CCC[C@H]3C(=O)N[C@@H](CC(=O)O)C(=O)N[C@@H](C)C(=O)N[C@H](C(=O)N3CCC[C@H]3C(=O)N[C@@H](CNC(=O)c3ccc(S(=O)(=O)F)cc3)C(=O)N[C@@H](CCCNC(=N)N)C(=O)N3CCC[C@H]3C(N)=O)C(C)C)oc12) [147A5]
covalent adduct formation with EphA2 (EphA2 [7]): confirmed

B1: ephrinA1-Fc: clustered natural ligand and used as a positive control (protein)
chain: DRHIVFWNSSNPKFREEDYTVHVQLNDYLDIICPHYEDDSVADAAMERYTLYMVEHQEYVACQPQSKDQVRWNCNRPSAKHGPEKLSEKFQRFTPFILGKEFKEGHSYYYISKPIYHQESQCLKLKVTVNGKITHNPQAHVNPQEKRLQADDPEVQVLHSIGYS
modifications: left off: a dimerising Fc or GST
notes: clustered natural ligand and used as a positive control
EphA2 cellular localization (EphA2 [6]): punctuated fluorescence was observed in the cytoplasm
